Measurements: ChEMBL document CHEMBL6121066, “Structure-Activity Relationship Studies of DNA Methyltransferase 1 Monovalent Degraders” (J Med Chem, 2025)

How the values were obtained:
HCT-116 = test: Induction of molecular glue effect mediated DNMT1 degradation in human HCT-116 cells assessed as reduction in DNMT1 protein level by measuring maximal efficacy at 1 uM incubated for 24 hrs by Western blot analysis relative to control; format: cell-based
[1] = Induction of molecular glue effect mediated DNMT1 degradation in human HCT-116 cells assessed as reduction in DNMT1 protein level incubated for 24 hrs by Western blot analysis; format: cell-based; conditions: HCT-116, 24 h
[2] = target: DNA (cytosine-5)-methyltransferase 1 (Homo sapiens, UniProt P26358); test: Inhibition of human DNMT1 (350 to 1600 residues) extracted from Escherichia coli BL21 (DE3)-codon plus-RIL cells in presence of SAM and hemimethylated DNA
Chain of DNA (cytosine-5)-methyltransferase 1 (P26358 whole entry, the tested form may be a part): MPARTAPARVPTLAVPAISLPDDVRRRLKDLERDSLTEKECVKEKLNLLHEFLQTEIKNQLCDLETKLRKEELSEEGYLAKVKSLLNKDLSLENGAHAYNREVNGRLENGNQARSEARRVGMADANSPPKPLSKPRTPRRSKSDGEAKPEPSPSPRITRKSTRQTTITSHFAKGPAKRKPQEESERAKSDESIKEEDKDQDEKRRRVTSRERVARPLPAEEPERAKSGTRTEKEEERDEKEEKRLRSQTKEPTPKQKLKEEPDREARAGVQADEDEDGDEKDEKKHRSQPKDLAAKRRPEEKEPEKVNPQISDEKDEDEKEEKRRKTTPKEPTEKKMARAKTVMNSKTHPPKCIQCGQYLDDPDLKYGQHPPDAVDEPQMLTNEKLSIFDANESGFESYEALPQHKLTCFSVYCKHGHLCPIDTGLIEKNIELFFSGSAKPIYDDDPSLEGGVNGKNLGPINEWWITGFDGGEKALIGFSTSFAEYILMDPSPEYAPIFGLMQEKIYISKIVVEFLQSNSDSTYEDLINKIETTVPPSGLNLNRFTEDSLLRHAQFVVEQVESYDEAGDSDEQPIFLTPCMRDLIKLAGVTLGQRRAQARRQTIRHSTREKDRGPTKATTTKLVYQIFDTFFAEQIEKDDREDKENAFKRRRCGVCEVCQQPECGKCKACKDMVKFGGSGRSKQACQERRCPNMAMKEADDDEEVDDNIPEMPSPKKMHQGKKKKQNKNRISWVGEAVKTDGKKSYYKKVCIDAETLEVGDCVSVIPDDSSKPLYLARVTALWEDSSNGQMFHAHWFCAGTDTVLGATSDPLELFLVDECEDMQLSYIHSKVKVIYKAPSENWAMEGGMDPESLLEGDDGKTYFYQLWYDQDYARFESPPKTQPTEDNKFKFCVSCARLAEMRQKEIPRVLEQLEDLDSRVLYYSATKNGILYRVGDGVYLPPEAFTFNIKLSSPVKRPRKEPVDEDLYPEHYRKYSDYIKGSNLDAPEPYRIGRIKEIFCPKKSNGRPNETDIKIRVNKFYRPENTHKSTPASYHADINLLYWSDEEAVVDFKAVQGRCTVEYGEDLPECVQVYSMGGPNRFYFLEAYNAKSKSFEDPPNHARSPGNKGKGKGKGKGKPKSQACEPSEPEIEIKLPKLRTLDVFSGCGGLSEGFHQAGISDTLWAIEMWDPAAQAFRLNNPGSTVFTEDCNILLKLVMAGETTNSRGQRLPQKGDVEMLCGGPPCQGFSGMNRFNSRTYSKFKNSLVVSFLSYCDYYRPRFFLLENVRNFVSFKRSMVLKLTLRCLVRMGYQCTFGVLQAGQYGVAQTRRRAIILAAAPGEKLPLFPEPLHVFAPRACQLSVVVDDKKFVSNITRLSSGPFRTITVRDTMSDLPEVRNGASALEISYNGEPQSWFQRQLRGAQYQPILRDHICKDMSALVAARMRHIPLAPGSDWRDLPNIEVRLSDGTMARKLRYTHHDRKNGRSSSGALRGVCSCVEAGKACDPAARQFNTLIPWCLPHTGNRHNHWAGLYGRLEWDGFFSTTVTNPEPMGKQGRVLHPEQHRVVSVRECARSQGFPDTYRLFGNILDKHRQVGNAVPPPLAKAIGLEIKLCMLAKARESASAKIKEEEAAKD

Row | Structure (SMILES) | Emax (HCT-116) | DC50 [1] | IC50 [2]
1 | CCc1c(C#N)c(SC(C(N)=O)c2ccccc2)nc(N2CCC(NC(=O)C(C)(C)C)CC2)c1C#N (stereo not given) | 90% | 39 nM | –
2 | CCc1c(C#N)c(SC(C(N)=O)c2ccccc2)nc(N2CCS(=O)(=O)CC2)c1C#N (stereo not given) | 74% | 362 nM | –
3 | CCc1c(C#N)c(SC(C(N)=O)c2ccccc2)nc(N2CCN(C(=O)c3nccs3)CC2)c1C#N (stereo not given) | 90% | 89 nM | –
4 | CCc1c(C#N)c(SC(C(N)=O)c2ccccc2)nc(N2CCN(C)CC2)c1C#N (stereo not given) | 46% | > 1000 nM | –
5 | CCc1c(C#N)c(SC(C(N)=O)c2ccccc2)nc(N2CCN(C(=O)c3cc4ccccc4s3)CC2)c1C#N (stereo not given) | 74% | 714 nM | –
6 | CCc1c(C#N)c(SC(C(N)=O)c2ccccc2)nc(N(C)CC(N)=O)c1C#N (stereo not given) | 88% | 99 nM | –
7 | CCc1c(C#N)c(SC(C(N)=O)c2ccccc2)nc(N2CCNC(=O)C2)c1C#N (stereo not given) | 65% | 534 nM | –
8 | CCc1c(C#N)c(SC(C(N)=O)c2ccccc2)nc(N2CCN(C(=O)CC(C)C)CC2)c1C#N (stereo not given) | 93% | 65 nM | –
9 | CCc1c(C#N)c(SC(C(N)=O)c2ccccc2)nc(N2CCNC(=O)CC2)c1C#N (stereo not given) | 58% | 819 nM | –
10 | CCc1c(C#N)c(NCC(N)=O)nc(SC(C(N)=O)c2ccccc2)c1C#N (stereo not given) | 32% | > 1000 nM | > 3000 nM
11 | CCc1c(C#N)c(SC(C(N)=O)c2ccccc2)nc(N2CCC(N)C2)c1C#N (stereo not given) | 87% | 92 nM | –
12 | CCc1c(C#N)c(SC(C(N)=O)c2ccccc2)nc(N(C)CCNC(C)=O)c1C#N (stereo not given) | 56% | 753 nM | –
13 | CCc1c(C#N)c(SC(C(N)=O)c2ccccc2)nc(N2CCC(NC(C)=O)CC2)c1C#N (stereo not given) | 13% | > 1000 nM | –
14 | CCc1c(C#N)c(SC(C(N)=O)c2ccccc2)nc(N2CCN(C(=O)C(C)(C)C)CC2)c1C#N (stereo not given) | 88% | 63 nM | –
15 | CCc1c(C#N)c(SC(C(N)=O)c2ccccc2)nc(N2CC3(CN(C(=O)C(C)(C)C)C3)C2)c1C#N (stereo not given) | 43% | 946 nM | –
16 | CCc1c(C#N)c(SC(C(N)=O)c2ccccc2)nc(N(C)CCN)c1C#N (stereo not given) | 79% | 78 nM | –
17 | CCc1c(C#N)c(SC(C(N)=O)c2ccccc2)nc(N2CCNCC2)c1C#N (stereo not given) | 78% | 184 nM | –
